The source of these data is patent US20190083498A1, “THERAPIES FOR HEMATOLOGIC MALIGNANCIES” (GILEAD CALISTOGA LLC, priority 2008, published 2019).

One data set relates to HuVEC cells. The data set is described as follows: AKT and ERK1/2 in HuVEC lysates, immunoblotting. The settings on record: 0-200 μM; 8 h. Type of data set: cell-based, human. From the text: Actin was used as a loading control.
Background: In western blotting, separated proteins are transferred to a membrane and probed.

A further data set has as its system INA-6 and LB MM cells. The data set is described as follows: Autophagy: LC3 accumulation, AVO acridine orange staining, LC3/beclin-1 western blot. The format is cell-based, human. From the text:
Samples were examined under a fluorescence microscope.
Autophagosome formation was defined by the accumulation of LC3; arrows indicate autophagosomes, FIG. 33A.
GAPDH served as a loading control.

The subject of the next data set is primary MCL cells. The data set is described as follows: Constitutive PI3K signaling in primary MCL cells. The format is cell-based, human. The settings on record: two patients; dose dependent; 0.1 μM or 1 μM.
Data set [1] relates to patient chronic lymphocytic leukemia (CLL) cells. The data set can be described thus: Apoptosis of patient CLL cells, Annexin V-FITC/PI flow cytometry. The format is cell-based, human. On the procedure: Peripheral blood was obtained from patients with B-CLL through the CLL Research Consortium from Ohio State University. Primary CD19-positive cells were isolated using Rosette-Sep (StemCell Technologies). Cells were maintained in RPMI 1640 (Invitrogen) supplemented with 10% heat-inactivated fetal bovine serum, 2 mmol/L L-glutamine, and penicillin (100 units/mL)/streptomycin (100 μg/mL; Invitrogen) at 37° C., 5% CO2, and high humidity. After incubation with the compound of formula I or medium for 96 hours, 5×10^5 cells were washed with PBS and then resuspended in binding buffer (10 mmol/L HEPES/NaOH, pH 7.4, 150 mmol/L NaCl 5 mmol/L KCl, 1 mmol/L MgCl2, 1.8 mmol/L CaCl2) containing 2 μL of Annexin V-FITC stock (BioWhittaker, Inc) and 10 μL of 20 μg/mL PI (Sigma). After incubation for 10 minutes at room temperature in a light-protected area, the specimens were quantified by flow cytometry on a FACScan™ (Becton Dickinson).
(Flow cytometry measures light scatter and fluorescence of single cells or particles in a stream.)

In a further data set the test system is HuVECs. The data set is described as follows: HuVEC viability, MTT. Type of data set: cell-based, human. The settings on record: 0-20 μM, 48 h. From the text: Data shown are mean ±SE of triplicate wells from a representative experiment.
The test system of a further data set is over 350 protein kinases. The data set is described as follows: Ambit KINOMEscan kinome-wide protein kinase screen. The format is binding. The settings on record: 10 μM. From the text:
Examples of some kinases in the screen are shown below in Table 3.

The subject of another data set is CCRF-SB cells. The data set can be described thus: Cell cycle FACS analysis, propidium iodide. Type of data set: cell-based. As to conditions: CCRF-SB ALL cell line. On the procedure:
Representative fluorescence-activated cell sorting (FACS) analysis of propidium iodide-stained CCRF-SB cells under normal growth conditions, and growth in the presence of the compound of formula I. The average percentage of cells in G0-G1, S, and G2-M phases is calculated in the table below the histographs.

The next data set deals with LB and INA-6 MM cells. The data set can be described thus: Growth inhibition of p110δ-positive MM cell lines, MTT. As to conditions: 48 h. The format is cell-based, human.
The subject of another data set is pAKT. The data set can be described thus: pAKT in DLBCL cell lines. Type of data set: cell-based.
A further data set has as its system leukemia cell lines. The data set is described as follows: Apoptosis in leukemia cell lines, Annexin V-FITC/7AAD. The format is cell-based. As to conditions: 1 μM or 10 μM; 24 hrs. On the procedure:
The percentage of apoptotic cells was determined by Annexin V-FITC/7AAD staining.

In data set [2] the test system is HS-578T, T47D, and MCF7 cells. The data set is described as follows: Apoptosis in breast cancer cell lines, Annexin V-FITC/7AAD. As to conditions: 24 h. The format is cell-based. As to the method:
HS-578T, T47D, and MCF7 cells were treated with the compound of formula I or corresponding DMSO concentrations for 24 h. The percentage of apoptotic cells was determined by Annexin V-FITC/7AAD staining Bottom left, viable cells (Annexin V-FITC/[…] negative); bottom right, early apoptotic cells (Annexin V-FITC positive only); top right, mid-late apoptotic cells (Annexin V-FITC/7AAD double-positive); and top left, late apoptotic/necrotic (7AAD positive only). Percentages of cells in each quadrant are indicated except for the bottom left quadrant (viable cells).

For another data set, the system named is CLL cells. The data set can be described thus: BH3 profiling, mitochondrial depolarization (JC-1). Type of data set: cell-based, human. On the procedure: BH3 profiling: CLL patient peripheral blood, bone marrow, and lymph node samples were analyzed by either the plate-based fluorimetry or FACS method. Briefly, PBMCs from CLL patients were made into single cell suspensions and gently permeabilized using digitonin (0.002%). For the fluorimtery-based method, 100 μM JC-1 (Invitrogen) was added at this time and cells were then loaded onto a 384-well plate, with individual wells containing individual BH3-only peptides. The JC1-BH3 assays were then conducted in triplicate on a Tecan Safire 2 with Ex 545 +/−[…] and Em 590 +/−20 nm with a three-hour time course. For the FACS-based method, single cell suspensions from CLL patient PBMCs were stained using human Fc Block (BD Pharmingen) followed by anti-CD19-V450 (BD Pharmingen) and anti-CXCR4-APC (BD Pharmingen). […] JC-1 was measured from the 488-nm laser using a 530/30-nm filter (FITC) and a 585/42-nm filter (PE), and the degree of mitochondrial depolarization was calculated using the surrogate of the change in the median of PE signal. The mitochondrial depolarization reported in response to each BH3 peptide is normalized relative to the median percentage change in PE fluorescence of the JC-1 dye with a negative control, dimethyl sulfoxide (DMSO) (0%) and a positive control, the mitochondrial uncoupling agent carbonyl cyanide 4-(trifluoromethoxy)- phenylhydrazone (FCCP) (100%).

Another data set deals with patient MM cells. The data set can be described thus: Viability of patient MM cells, MTT. The settings on record: 48 h. The format is cell-based, human.
For data set [3] the following is noted: human, in vivo. As to the method: This example provides data relating to the concentration of the compound of formula I in the blood of a healthy human subject on day 7. The concentration was monitored over a period of 12 hours, after oral administration of 50, 100, or 200 mg BID of the compound of formula I on day 7 of the study. FIG. 11 follows the plasma concentration of the drug over a period of 12 hours from administration.
In addition, single dose studies wherein 17-400 mg of the compound of formula I was administered in healthy volunteers was carried out.
Table 1, below, provides an overview of the subjects in the study, wherein either a singe dose (SD) or multiple dose (MD) of the compound of formula I is administered to a subject at varying amounts. The “n” values refer to the number of subjects in each group.

Excerpt for patient MM cells: Patient MM and BM cells were obtained from BM samples after informed consent was obtained per the Declaration of Helsinki and approval by the Institutional Review Board of the Dana-Farber Cancer Institute (Boston, Mass.). BM mononuclear cells were separated using Ficoll-Paque™ density sedimentation, and plasma cells were purified (>95% CD138+) by positive selection with anti-CD138 magnetic activated cell separation micro beads (Miltenyi Biotec, Auburn, Calif.). Tumor cells were also purified from the BM of MM patients using the RosetteSep negative selection system (StemCell Technologies, Vancouver, BC, Canada).
Data represent mean ±SD viability, assessed by MTT assay of triplicate cultures, expressed as percentage of untreated controls.

In the case of `CC[C@H](Nc1ncnc2[nH]cnc12)c1nc2cccc(F)c2c(=O)n1-c1ccccc1` [Compound I, 5-fluoro-3-phenyl-2-[1-(9H-purin-6-ylamino)-propyl]-3H-quinazolin-4-one], the “phosphorylation and expression of AKT and ERK1/2” value with HuVEC cells is “markedly down regulated”. In the data set on INA-6 and LB MM cells (5 μM, 6 h, INA-6 and LB cells), the “LC3 staining (immunofluorescence)” value is on record as “markedly increased LC 3 staining”. Moreover, in the data set on INA-6 and LB MM cells (INA-6, 6 h), the “LC3-II and Beclin1 protein” value is given as “markedly increased”. Also, the “acidic vesicular organelles (acridine orange staining)” value with INA-6 and LB MM cells (LB and INA-6 cells) is “development of AVOs”. In the data set on primary MCL cells, the “constitutive PI3K signaling in primary MCL cells” value is given as “block constitutive PI3K signaling”. For the same compound, in [1], the “apoptosis of CLL cells from poor prognosis patients” value was “induced apoptosis was seen” and the “apoptosis of CLL cells from refractory/relapsed patients” value was “induced apoptosis was also seen to be effective”. Also, the “apoptosis of CLL patient cells” value in [1] (96 hours) is reported as “results in apoptosis”. Further, the “cytotoxicity in HuVECs” value in the data set with HuVECs is on record as “without associated cytotoxicity”. Moreover, the “off target activity in kinome-wide protein kinase screen” value in the data set on over 350 protein kinases is on record as “failed to detect any activity”. For the same compound, in the data set with over 350 protein kinases (listed as compound of formula I), the “off target activity in kinome-wide protein kinase screen” value is “little activity”. Also, the cell cycle effect result in the data set with CCRF-SB cells was “G0/G1 cell cycle arrest”. Moreover, the “cytotoxicity against p110δ-positive MM cells” value with LB and INA-6 MM cells is listed as “induced cytotoxicity”. The “pAKT levels in DLBCL cell lines” value with pAKT is on record as “reduces pAKT levels”. Also, the “apoptosis in leukemia cell lines” value in the data set on leukemia cell lines is recorded as “induces apoptosis”. In addition, the “apoptosis in breast cancer cell lines” value in [2] is “induces apoptosis”. Further, the “mitochondrial priming of stroma-exposed CLL cells” value in the data set with CLL cells (24 hours, p=0.075) is reported as “increased mitochondrial priming”. In the data set with CLL cells (p=0.046 and p=0.047), the “mitochondrial depolarization induced by BAD BH3 peptide and ABT-737 in treated CLL cells” value is listed as “significantly more mitochondrial depolarization”. Moreover, the “cytotoxicity against patient MM cells” value in the data set with patient MM cells was “induced cytotoxicity”. The “tolerability in normal healthy volunteers” value in [3] was “well tolerated”. The “time the concentration exceeds the PI3Kδ EC50 concentration in basophil” value in data set [3] (7 day) was “at least 12 hours”.
